Target: T1, DOPARS (Methanocaldococcus jannaschii, UniProt Q57834, D158A/D286A/E220K/F261S/H283P/H70A/I159A/L282P/L65E/M285R/N268D/P284L/Y119F)
T1 construct: gene tyrS
Test: isothermal titration calorimetry
Format: binding

T1 sequence (Q57834 whole entry L65E/H70A/Y119F/D158A/I159A/E220K/F261S/N268D/L282P/H283P/P284L/M285R/D286A): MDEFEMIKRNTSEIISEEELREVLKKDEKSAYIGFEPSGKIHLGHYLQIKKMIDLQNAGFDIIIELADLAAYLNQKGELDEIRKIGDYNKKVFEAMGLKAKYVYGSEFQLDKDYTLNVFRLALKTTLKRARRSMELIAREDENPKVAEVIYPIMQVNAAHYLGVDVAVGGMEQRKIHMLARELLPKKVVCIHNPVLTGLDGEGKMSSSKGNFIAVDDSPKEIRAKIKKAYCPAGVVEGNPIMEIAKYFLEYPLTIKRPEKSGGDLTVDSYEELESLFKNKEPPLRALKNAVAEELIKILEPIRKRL

- Kd: 11.7 µM
Structure (SMILES): N[C@@H](Cc1ccc(O)c(O)c1)C(=O)O [DOPA, 3,4-Dihydroxy-L-phenylalanine]

Reference: paper PMC11939889, “Efficient Incorporation of DOPA into Proteins Free from Competition with Endogenous Translation Termination Machinery” (Biomolecules, 2025)
